Reference: patent US20070219243A1, “Method for improving the pharmacokinetics of HIV integrase inhibitors” (priority 2005, published 2007)
Entries after “also recorded” stand apart in the source; their conditions may differ.

Tests used:
[1] = Example 5: drug-drug interaction of zidovudine and Compound 1/r; settings: human, in vivo
Description: Zidovudine is a NRTI used in HIV patients.
PK parameters were estimated using WinNonlin™ 5.0.1 (Pharsight Corporation, Mountain View, Calif., USA).

[2] = in vivo
Procedure: Pharmacokinetic (PK) blood draws were performed on days 7, 17, and 27.

[3] = Example 7: food effect on pharmacokinetics of Compound 1 in healthy Japanese males; type: in vivo; settings: male, human, plasma, po, 400 mg, single oral dose 400 mg, Mean ± SD (n = 6); for half-life: read-out: t1/2 λz (converted)
Procedure: Subjects in the 400 mg fasted cohort received an additional 400 mg dose with breakfast after a washout period (generally a minimum of ten days after the initial administration). The interval of ten days between the two doses was considered appropriate for eliminating any within-subject carryover effects. […] Doses were administered at similar times for each subject in each treatment period. […] Plasma samples were isolated from healthy subjects administered with Compound 1. The plasma samples were extracted by solid phase extraction using Empore™ Disk Plate (C8SD), and then measured by high-performance liquid chromatography/tandem mass spectrometry (LC/MS/MS) (HPLC model 2795 separations module from Waters; mass spectrometer model AP14000 from MDS SCIEX). Ionization and detection were performed with electrospray ionization and positive ion detection with multiple reaction monitoring, respectively. […] To 50 μL of plasma samples spiked with […] each of 90% acetonitrile and 20 mmol/L ammonium formate-formic acid buffer (pH 3.0)/acetonitrile (10:90, v/v), 10 μL each of internal standard solution was added. To these samples, 200 μL of 0.1% formic acid in 10% acetonitrile was added. These solutions were then mixed for 10 seconds and centrifuged at 10,000 rpm for 5 minutes at 4° C. A 250 μL aliquot of the supernatant was added to a Empore™ Disk Plate (C8SD) (conditioned with 150 μL of acetonitrile and 200 μL of 0.1% formic acid in this order). The plate was washed twice with 200 μL of 0.1% formic acid in 20% acetonitrile and eluted twice with 100 μL of 0.1% formic acid in 80% acetonitrile (200 μL in total). To the eluates, 200 μL of 0.1% formic acid was added and mixed. Then, 10 μL of each solution was injected into the LC/MS/MS system and analyzed.

HIV-1 integrase = HIV-1 integrase (Human immunodeficiency virus type 1 group M subtype B, UniProt P04585); settings: after 10 days of monotherapy; through Day 21
[4] = Example 7: safety of single 400 mg dose; type: in vivo, human; settings: single oral 400 mg dose, fasted and fed, healthy Japanese males
Procedure: The subjects were admitted to the medical institution in the afternoon on the day before administration (“Day-1”). […] The subjects were discharged the day after administration (“Day 2”). Thus, the subjects were hospitalized for a total of three days. Follow up assessment for safety was performed 6 to 8 days after administration (“Days 7 to 9”).

[5] = human, in vivo
Procedure: Safety, tolerability, pharmacokinetics, and efficacy were monitored through Day 21 after dosing. The active treatments in the 5 cohorts were as follows: […] The duration of the study was 21 days, with 10 days of treatment and 11 days of follow-up. […] Matching placebo was administered orally under fed conditions. For Cohort 5 only, 100 mg RTV capsules were coadministered orally under fed conditions. […] Pharmacokinetics: The pharmacokinetic parameters of Compound 1 in plasma and peripheral blood mononuclear cells were summarized using descriptive statistics.

[6] = Example 3: pharmacokinetics of Compound 1 and RTV at a range of RTV doses; settings: for Ctau / AUC / Cmax / half-life: Compound 1 in plasma, mean (CV %); for IQ: based on protein binding-adjusted IC50 in PBMCs; for AUC / Cmax / half-life: both, human, plasma, oral; for AUC: AUCtau
HIV-1 = test: Example 2: exposure-response (Emax model) and inhibitory quotient; type: in vivo; settings: simple Emax model on Ctau
[7] = Example 2: safety in subjects infected with HIV-1; type: in vivo, human
Procedure: Safety: Adverse events, vital signs, electrocardiogram, ophthalmologic examination, and clinical laboratory tests were evaluated for safety. Safety: The proportion of subjects with adverse events was summarized by treatment, system organ class and preferred term for treatment-emergent adverse events, treatment-related adverse events, serious adverse events, and adverse events leading to study drug discontinuation. Adverse events were coded using the Medical Dictionary for Regulatory Activities (MedDRA®) version 8.1. […] Laboratory results were expressed on the original measurement scale and in terms of the toxicity grade. Changes from baseline in quantitative laboratory tests were summarized by visit.

[8] = Example 1: multiple-dose safety of Compound 1 alone and with RTV; type: in vivo, human
Procedure: The single-dose and multiple-dose pharmacokinetics of Compound 1 were also determined. The multiple-dose safety of Compound 1 administered alone and with RTV was also determined. Safety: Safety was evaluated by assessment of clinical laboratory tests at baseline and at various time points during the study; periodic physical examinations, including vital signs; and documentation of adverse events throughout the study. Safety: No statistical inference was performed for safety data in this pharmacokinetic study.

[9] = Compound 1 125 mg + 20 mg RTV QD
[10] = Compound 1 125 mg + 50 mg RTV QD
[11] = Compound 1 125 mg + 100 mg RTV QD
[12] = Compound 1 125 mg + 200 mg RTV QD
[13] = 200 mg of Compound 1 twice-daily, 6 subjects
[14] = healthy subjects, Compound 1 100 mg twice daily alone, or with RTV 100 mg twice daily

SMILES: COc1cc2c(cc1Cc1cccc(Cl)c1F)c(=O)c(C(=O)O)cn2[C@H](CO)C(C)C [Compound 1, 6-(3-chloro-2-fluorobenzyl)-1-[(2S)-1-hydroxy-3-methylbutan-2-yl]-7-methoxy-4-oxo-1,4-dihydroquinoline-3-carboxylic acid]
- Half-life (48 hour PK profile) [1]: supporting once daily dosing
- PK (Cmax, AUCtau, Ctau) during co-administration vs alone [2]: unaffected
- AUC(0-inf) ([3]; Fasted): 1450 ± 308 ng·h/mL
- Cmax ([3]; Fasted): 264 ± 78 ng/mL
- Tmax ([3]; Fasted): 2.5 ± 1.2 h
- half-life ([3]; Fasted): 5.4 ± 1 h
- AUC(0-inf) ([3]; Fed): 3940 ± 1070 ng·h/mL
- Cmax ([3]; Fed): 903 ± 391 ng/mL
- Tmax ([3]; Fed): 2.3 ± 1 h
- half-life ([3]; Fed): 3.2 ± 0.3 h
- HIV-1 integrase mutations corresponding to Compound 1 resistance (HIV-1 integrase): no subject developed HIV-1 integrase mutations; also recorded: No Compound 1 resistance mutations were detected
- Safety and tolerability [4]: safe and well tolerated
- Dose proportionality of pharmacokinetics [5]: did not exhibit dose-proportional increases
- Ctau [6, 9]: 73.8 (60.2) ng/ml
- Ctau [6, 10]: 251 (27.7) ng/ml
- Ctau [6, 11]: 380 (39.9) ng/ml
- Ctau [6, 12]: 410 (26.0) ng/ml
- IQ [6, 9]: 10.3
- IQ [6, 10]: 35.0
- IQ [6, 11]: 53.0
- IQ [6, 12]: 57.2
- AUC ([6]; Compound 1 125 mg + 20 mg RTV QD, after a meal): 10200 ng·h/mL
- AUC [6, 10]: 15800 ng·h/mL
- AUC [6, 11]: 20300 ng·h/mL
- AUC [6, 12]: 20600 ng·h/mL
- Cmax [6, 9]: 1370 ng/mL
- Cmax [6, 10]: 1560 ng/mL
- Cmax [6, 11]: 1830 ng/mL
- Cmax [6, 12]: 2030 ng/mL
- half-life [6, 9]: 4.34 h
- half-life [6, 10]: 9.52 h
- half-life [6, 11]: 11.5 h
- half-life [6, 12]: 14.3 h
- Emax (HIV-1): 2.32 log10 copies/mL reduction from baseline
- Subjects with treatment-emergent Grade 3 or 4 laboratory abnormalities ([7]; 50 mg of Compound 1+RTV once-daily, 6 subjects): 1 subject
- Subjects with treatment-related fatigue [7, 13]: 2 subjects
- Subjects with treatment-related nausea [7, 13]: 2 subjects
- Subjects with treatment-emergent Grade 3 or 4 laboratory abnormalities ([7]; 400 mg of Compound 1 twice-daily, 6 subjects): 1 subject
- Tolerability ([7]; all dose levels, 10 days, HIV-1 infected subjects): generally well tolerated
- Subjects with treatment-emergent AEs considered related to study drugs [8, 14]: 2 of 12
- Subjects with treatment-emergent adverse events [8, 14]: 4 of 12
- Tolerability ([8]; oral, 100 mg twice daily, Compound 1 up to 20 days, with RTV 100 mg twice daily up to 10 days): well tolerated
